Key:
PD patients = details: cited from earlier work
PIF mRNA = PIF mRNA expression after MPP+ treatment, northern blot; format: cell-based; details: MPP+ treatment 12 hr, enriched rat DAergic neuron cultures, FIG. 12A
Source text: (§1) The exact molecular mechanisms leading to the pathophysiology of PD are not well understood. MPP^+, a mitochondrial complex I inhibitor, produces PD-type symptoms in humans and laboratory animals and has been used to investigate PD pathogenesis^12,13. MPP^+, the ultimate metabolite of MPTP, is taken up into DAergic neurons where it accumulates in mitochondria and works to inhibit complex I activity. Although the mechanism of MPP^+-induced neurotoxicity is not fully understood, there is increasing evidence supporting the involvement of reactive oxygen species (ROS)^14. […]
(§2) For these studies enriched mesecephalic DAergic cultures were obtained from E16 Sprague Dawley embryos and cultured for 10 days in poly 1-ornithine coated culture dish at a density of 0.5×10^6 cells per well and maintained in Neurobasal medium with B-27 supplement and 0.5 mM glutamine, as previously described^16. In A, following MPP^+ treatment for 12 hr, total RNA was extracted from the neuronal cultures using Ultraspec RNA (Biotecx) and PIF mRNA expression assessed by northern blot hybridization assay using ^32p labeled hPIF cDNA^17 and quantified by phospho-imaging (Molecular Dynamics). […] Non-specific transport was determined in parallel assays conducted in the presence of 1 uM GBR12909 and incorporated [^3H]-dopamine was extracted with NaOH (0.5M) and quantified by liquid scintillation spectrometry

substantia nigra = experiment: In vivo MRM T2-weighted imaging of substantia nigra after MPTP lesion; design: species or system mouse
Source text: The goal of this study was to develop a non-invasive methodology for functionally assessing the predicative role of novel protein biomarkers in CSF (and serum) for experimental MPTP SN neurodegeneration in pre-clinical models of PD (Aim 4) using MRM imaging technology in collaboration with Dr. Cheuk Tang (Collaborator, Imaging Sciences Laboratory, Dept. Neuroradiology) and Dr. Patrick Hof (Collaborator, Advance Imaging Program, Center for Neurobiology), of Mount Sinai Medical School. The studies are based on the principle that increased iron content found in SN of PD and MPTP models of PD^29-31 may be an index of SN neurodegeneration, which can be monitored by MRM^32,33, longitudinally. Given that MRM measurement is highly sensitive to iron content in SN dopaminergic cells, we hypothesized that MRM may offer a means for non-invasive evaluation of SN neurodegeneration. In exciting ongoing studies, using a 9.4 Tesla micro MRM imager (Bruker Instrument) we collected matched consecutive rostro-caudal T2-weighted in vivo MRM images of the whole brain from the same mouse, prior to and four-days after SN MPTP lesion. […] As predicted, this observation of hypo-intense MRM measurements in the SN post-lesioning is consistent with an elevation in iron content in the degenerating nigrostriatal DAergic neurons. […]

[1] = system: substantia nigra DAergic neurons; format: in vivo, mouse
Protocol: In this study SN DAergic lesions in male C57B6/SJ mice were obtained by i.p. MPTP injection (four consecutive injections at 2 hr intervals; 20 mg/kg/body weight (BW) per injection 27); saline injected mice were used as a control (n=4 per group). Four days following MPTP (or saline) injection, mice were anesthetized using a combination of ketamine (50 mg/kg BW) and xylazine (5 mg/kg BW), CSF was then collected from cisterna magna, as previously described^28. Immediately after CSF collection (4 days post-lesioning), mice were sacrificed by cervical dislocation and the brain was collected, preserved under cryoprotection and stored at −80° C. 1 μl of CSF from each animal was analyzed by SELDI technology as described in FIG. 1. […] In panel 3B, number of thyroxine hydroxylase (TH)-immunoreactive DAergic neurons in the SN counted stereologically, with data are expressed as mean+SEM for MPTP and saline groups. In panels A and B, n=4 per group; *P<0.05.

[2] = system: SY5Y neuroblastoma catecholaminergic cells; experiment: MPP+ toxicity in SY5Y cells, MTT assay; format: cell-based; details: 24 hr after exposure to MPP+; dose dependent; FIG. 9
Protocol: The PD biomarker DCD-1 promotes neurotoxicity in SY5Y cells in a dose dependent manner. In this study cell toxicity in SY5Y cells was assessed 24 hr after exposure to MPP+ using methylthiazoletetrazolium [3 (4,5-dimethylthiazol-2-yl)-2,5-diphenyltetrazolium bromide] (MTT) calorimetric assay, (an index or altered energy metabolism). Values represent Means+SEM of determinations from 2 separate cultures, n=3 cultures chambers per group * P<0.05 between MPP+ and MPP+ and DCD-1 treatment (see FIG. 9).

[3] = molecular target: PIF cell surface receptor (DCD receptor) (human); experiment: Scatchard analysis of AP-PIF binding to human SH-SY5Y neuronal cells
[4] = system: rat mesencephalic DAergic neuron cultures; experiment: MPP+-mediated neurotoxicity in enriched rat mesencephalic DAergic neuron cultures, [3H]-dopamine uptake assay; format: cell-based
Source text: as §1, §2

α-synuclein = experiment: alpha-synuclein immunoblot in enriched DAergic neuron cultures after hrPIF treatment; format: cell-based, rat
Source text: Because of the recent evidence showing increased α-synuclein expression increases vulnerability to MPP/MPTP^19, we decided to explore the possibility that PIF might have promoted DAergic neurodgeneration through mechanisms that involve α-synuclein expression. […] This evidence is also consistent with work in Drosophila where overexpression of α-synuclein leads to DAergic toxicity^22. In these studies (see FIG. 13) 10 days old enriched […] cultures were obtained as discussed in FIG. 12. In A, following treatment with increasing concentrations of hrPIF, cultures lysed in each well using SDS-PAGE (5 mM Tris-HCl, 2% SDS, 0.1 M DTT, 0.001% Bromphenol blue, 10% glycerol, pH6.8) sample buffer. […] After 5 min incubation at RT in buffer, the Triton X-100 soluble fraction was gently collected from the-dish-. -The remaining Triton-insoluble material was gently rinsed once with ice cold PBS, and collected in buffer N (0.1 M Na2CO3, pH 11.5 with protease inhibitor cocktails). In C, the Triton-insoluble synuclein fraction was collected in the pellet by centrifugation at 16,000 g for 10 min and dissolved in 1×SDS buffer. Immunoblots used monoclonal anti α-synuclein antibody (1:1000, BD Bioscience) and immunoreactivities were visualized densitometrically.

In the case of N[C@@H](Cc1ccc(O)c(O)c1)C(=O)O [L-dopa], the “extension of lifespan of PD patients, on average” value (PD patients) is given as “one”.

With C[n+]1ccc(-c2ccccc2)cc1 [MPP^+, 1-Methyl-4-phenylpyridinium ion] the “PIF mRNA expression” value (PIF mRNA) was “dose dependently induced”.

With CN1CC=C(c2ccccc2)CC1 [MPTP] the “decrease in SN T2 density / T2-weighted values vs pre-lesion” value (substantia nigra; after MPTP lesion, n=2, 9.4 Tesla MRM) was “approximately 25%”, the “average normalized SN T2 density (SN T2 density/temporal T2 density)” value (substantia nigra; post-MPTP lesioning, N=2 animals) was 0.6904 ± 0.05 and the “loss of tyrosine hydroxylase (TH) immunopositive neurons” value ([1]; MPTP i.p. 4 x 20 mg/kg, 4 days post-lesioning, stereological count) was “approximately 25%”. For the same molecule, the “4.6 kDa anionic DCD-like protein in CSF” value ([1]; mouse, in vivo) was “induced”.

With “DCD-1: human recombinant DCD-1, aa 63-109 of dermcidin precursor, 4.7 kDa (SEQ ID NO:1) (SSLLEKGLDGAKKAVGGLGKLGKDAVEDLESVGKGAVHDVKDVLDSV; homo sapiens)” the “effect on MPP+ mediated death (MTT)” value [2] was “potentiates MPP+ mediated death”.

“N-terminal alkaline phosphatase (AP) C-terminal PIF (DCD) precursor protein fusion protein (from UniProt P81605 20-110) (ligand)” gave a Kd [3] of 51 nM and a maximum binding concentration (receptors per cell) (PIF receptors per cell) [3] of 30000.

B1: hrPIF: human recombinant full length dermicidin, His-tagged, expressed in M15 bacterial cells (protein)
chain: YDPEAASAPGSGNPCHEASAAQKENAGEDPGLARQAPKPRKQRSSLLEKGLDGAKKAVGGLGKLGKDAVEDLESVGKGAVHDVKDVLDSVL
modifications: left off: small tags and cut ends
notes: human recombinant full length dermicidin, His-tagged, expressed in M15 bacterial cells
With B1 the “potentiation of MPP+-mediated neurotoxicity, dopamine uptake assay” value ([4]; exogenous hrPIF with MPP+, 12 hours, FIG. 12B) was about 1.5 fold, the “potentiation of MPP+-induced neurotoxicity” value ([4]; exogenous hrPIF, rat mesencephalic DAergic neuron cultures, summary statement) was about 2 fold and the “soluble oligomeric α-synuclein protofibrils” value (α-synuclein; Triton X-100 soluble fraction, FIG. 13B) was “accumulation”. The “aggregated α-synuclein” value (α-synuclein; Triton-insoluble fraction, FIG. 13C) was “not aggregated α-synuclein” and the “expression of total α-synuclein” value (α-synuclein; hrPIF treatment, FIG. 13A) was “increased expression”.
